ChEMBL document CHEMBL1140284, “A three-dimensional pharmacophore model for 5-hydroxytryptamine6 (5-HT6) receptor antagonists” (J Med Chem, 2005)

biological target: 5-hydroxytryptamine receptor 6 (Homo sapiens, UniProt P50406); assay: Binding affinity for human 5-hydroxytryptamine 6 receptor
Sequence (P50406 whole entry): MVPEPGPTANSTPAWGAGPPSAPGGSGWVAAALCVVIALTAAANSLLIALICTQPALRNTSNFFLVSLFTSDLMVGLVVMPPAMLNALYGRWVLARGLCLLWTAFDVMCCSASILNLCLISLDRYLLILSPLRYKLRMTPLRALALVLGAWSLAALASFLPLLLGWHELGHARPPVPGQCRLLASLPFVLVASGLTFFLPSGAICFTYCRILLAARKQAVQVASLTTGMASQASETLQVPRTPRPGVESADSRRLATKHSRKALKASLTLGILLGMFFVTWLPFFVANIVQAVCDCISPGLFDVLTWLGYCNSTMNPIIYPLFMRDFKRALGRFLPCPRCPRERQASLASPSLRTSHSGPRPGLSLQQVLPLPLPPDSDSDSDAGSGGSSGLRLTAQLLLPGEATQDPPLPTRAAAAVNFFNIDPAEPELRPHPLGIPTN

Compound | Ki [nM]
CN(C)CCn1ccc2cc(NS(=O)(=O)c3c(Cl)nc4sccn34)ccc21 | 2
COc1cccc(-c2noc(-c3[nH]c4ccccc4c3CCN)n2)c1 | 1.26
CCOC(=O)c1[nH]c2ccccc2c1CCN | 20
COc1cccc2c(CCN)cn(S(=O)(=O)c3ccc4ccccc4c3)c12 | 5.01
CC[N+](C)(CC)CCc1cn(S(=O)(=O)c2ccc(NC(C)=O)cc2)c2ccc(OC)cc12 | 251
O=S(=O)(c1ccccc1)c1cc2c(N3CCNCC3)cccc2[nH]1 | 0.126
NCCc1c[nH]c2ccc(NS(=O)(=O)c3ccc4c(Cl)cccc4c3)cc12 | 0.2
COc1ccc(NS(=O)(=O)c2cccc(I)c2)cc1N1CCNCC1 | 0.794
COc1ccc2c(c1)c(CCN)cn2S(=O)(=O)c1cccc2ccccc12 | 0.794
COc1ccc2[nH]c(-c3ccccc3)c(CCN(C)C)c2c1 | 50.1
COc1ccc2c(c1)c(CCN(C)C)cn2S(=O)(=O)c1ccccc1 | 2.51
CN(C)CCc1cn(S(=O)(=O)c2ccccc2)c2ccccc12 | 3.16

Continued, values first:

Ki [nM] | Compound
7.94 | Cc1ccc(S(=O)(=O)n2cc3c4c(cccc42)[C@H](O)[C@@H](N(C)C)C3)cc1
1260 | Nc1ccc(S(=O)(=O)Nc2ccc3cc[nH]c3c2)cc1
63.1 | Nc1ccc(S(=O)(=O)Nc2cccc3[nH]ccc23)cc1
79.4 | Cc1c(S(=O)(=O)Nc2ccc3ncc(N4CCN(C)CC4)cc3c2)sc2ccc(Cl)cc12
39.8 | COc1cc(N)cc(NS(=O)(=O)c2ccc(N)cc2)c1
12.6 | Cc1cn(S(=O)(=O)c2ccc(N)cc2)c2ccccc12
3.98 | CSc1nc2ccccn2c(=N)c1S(=O)(=O)c1ccccc1
631 | Nc1ccc(S(=O)(=O)Nc2cccc(N)c2)cc1
0.126 | CON1CCN(c2ccc(S(=O)(=O)c3cccc4ccccc34)cc2)CC1
3.16 | NCc1cn(S(=O)(=O)c2ccccc2)c2ccccc12
31.6 | Nc1ccc(S(=O)(=O)n2c3c(c4ccccc42)CCCC3)cc1
50.1 | O=S(=O)(Nc1ccc2ccn(CCN3CCCC3)c2c1)c1c(Cl)nc2sccn12
6.31 | NCc1cn(S(=O)(=O)c2ccc(N)cc2)c2ccccc12
0.2 | O=S(=O)(c1ccc2ccccc2c1)n1ccc2ccc(N3CCN4C=CCC4C3)cc21 (stereo unspecified)
1000 | O=S(=O)(Nc1ccc2c(ccn2CCCN2CCCCC2)c1)c1c(Cl)nc2sccn12
50.1 | Nc1ccc(S(=O)(=O)c2cc(Br)nc(Br)c2)cc1
1.26 | O=S(=O)(c1cccc2ccccc12)n1ccc2ccc(C3=CCN4CCCC4C3)cc21 (stereo unspecified)
15.8 | CNc1cc(NS(=O)(=O)c2ccc(N)cc2)cc(NC)n1
50.1 | Nc1ccc(S(=O)(=O)Nc2cc(N)nc(Br)c2)cc1
